Assay results reported in publication PMC6152631, “Microwave-Assisted Facile Synthesis, Anticancer Evaluation and Docking Study of N-((5-(Substituted methylene amino)-1,3,4-thiadiazol-2-yl)methyl) Benzamide Derivatives” (Molecules : A Journal of Synthetic Chemistry and Natural …, 2017).

Legend:
Assay type in all cases: cell-based
[1] = tested on: SKMEL-2 (human melanoma cancer cell line); assay: MTT assay, in vitro anticancer activity, SKMEL-2; conditions: SK-MEL-2, 48 h treatment
Experimental: (§1) The synthesized compounds 7(a–l) were evaluated for their in vitro anticancer activity against MCF-7 (human breast cancer cell line), HeLa (human cervical cancer cell line), SKMEL-2 (human melanoma cancer cell line) and HL-60 (human leukemia cancer cell line) cancer cell lines, as shown in Table 2. […] The GI50 values (the concentration required to achieve a growth inhibition of 50%) for the synthesized compounds were determined by MTT assay method. The in vitro anticancer evaluation results and GI50 values were listed in Table 2, and the well-known anticancer drug Adriamycin was used as positive control.
(§2) The synthesized compounds 7(a–l) were evaluated for their in vitro anticancer activity against MCF-7 (human breast cancer cell line), HeLa (human cervical cancer cell line), SKMEL-2 (human melanoma cancer cell line) and HL-60 (human leukemia cancer cell line) cancer cell lines. The GI50 values (concentration required to Growth inhibition of 50%) for the synthesized compounds were determined using the MTT assays method.
(§3) The stock solutions of test compounds were prepared in DMSO. After 24 h incubation, different concentrations (2, 4, 6, 8 µM) of compounds, made by serial dilution in culture medium, were added in 48 h incubation. The final concentration of DMSO was 0.01% in each well. […] The cell growth was determined using MTT (3-(4,5-dimethylthiazol-2-yl)-2,5-diphenyl tetrazolium bromide (Sigma, St. Louis, MO, USA) reduction assay, which is based on the ability of viable cells to reduce a soluble yellow tetrazolium salt to blue formazan crystal. Briefly, after 48 h of treatments, the 10 µl of MTT dye, prepared in phosphate buffered saline (PBS) was added to all wells. The plates were then incubated for 4 h at 37 °C. Supernatant from each well was carefully removed, formazon crystals were dissolved in 100 µL of DMSO and absorbance at 540 nm wavelength was recorded and each concentration was tested in threefold. The GI50 values were determined as concentration of compounds that inhibited cancer cell growth by 50%.

[2] = tested on: MCF-7 (human breast cancer cell line); assay: MTT assay, in vitro anticancer activity, MCF-7; conditions: MCF7, 48 h treatment
Experimental: as §1, §2, §3

[3] = tested on: HeLa (human cervical cancer cell line); assay: MTT assay, in vitro anticancer activity, HeLa; conditions: 48 h treatment
Experimental: as §1, §2, §3

[4] = tested on: HL-60 (human leukemia cancer cell line); assay: MTT assay, in vitro anticancer activity, HL-60; conditions: 48 h treatment
Experimental: as §1, §2, §3

[5] = MTT assay, cytotoxicity on non-tumorigenic cells, MCF-10A; conditions: human, MCF-10A non-tumorigenic breast epithelial cells; MTT, MCF-10A normal breast epithelial cells
Experimental: [The procedure below names another cell line; the source lists this cell line under the same test.] as §1, §3

[6] = tested on: MCF-10A normal breast epithelial cell lines; assay: as above; conditions: MCF-7 vs MCF-10A GI50
Experimental: [The procedure below names another cell line; the source lists this cell line under the same test.] as §1, §3

Compound | GI50 [1] [µM] | GI50 [2] [µM] | GI50 [3] [µM] | GI50 [4] [µM] | GI50 at 48 h [5] [µM] | selectivity for MCF-7 cancer cell lines in comparison to MCF-10A normal breast epithelial cell lines [6]
COc1cc(/C=N/c2nnc(CNC(=O)c3ccccc3)s2)ccc1O [Compound 7e, (E)-N-((5-(4-Hydroxy-3-methoxybenzylideneamino)-1,3,4-thiadiazol-2-yl)methyl) benzamide] | 28.1 | 35.2 | 46.8 | 39.6 |  | 
O=C(NCc1nnc(/N=C/c2ccccc2O)s1)c1ccccc1 [Compound 7d, (E)-N-((5-(2-Hydroxybenzylideneamino)-1,3,4-thiadiazol-2-yl)methyl) benzamide] | 34 | 36.7 | 52.4 | 40.2 |  | 
COc1ccc(/C=N/c2nnc(CNC(=O)c3ccccc3)s2)cc1 [Compound 7g, (E)-N-((5-(4-Methoxybenzylideneamino)-1,3,4-thiadiazol-2-yl)methyl) benzamide] | 46.4 | 41 | 66.1 | 42.4 |  | 
O=C(NCc1nnc(/N=C/c2cccs2)s1)c1ccccc1 [Compound 7l, (E)-N-((5-(Thiophen-2-ylmethyleneamino)-1,3,4-thiadiazol-2-yl)methyl) benzamide] | 22 | 19 | 28.8 | 29.9 | > 100 | 
COc1cccc2c1C(=O)c1c(O)c3c(c(O)c1C2=O)C[C@@](O)(C(=O)CO)C[C@@H]3O[C@H]1C[C@H](N)[C@H](O)[C@H](C)O1 [ADR, Adriamycin, reference compound] | < 10 | < 10 | < 10 | < 10 |  | 
O=C(NCc1nnc(/N=C/c2ccc(O)cc2)s1)c1ccccc1 [Compound 7c, (E)-N-((5-(4-Hydroxybenzylideneamino)-1,3,4-thiadiazol-2-yl)methyl) benzamide] | 27.5 | 32.4 | 41.1 | 33.3 |  | 
COc1ccc(/C=N/c2nnc(CNC(=O)c3ccccc3)s2)cc1OC [Compound 7h, (E)-N-((5-(3,4-Dimethoxybenzylideneamino)-1,3,4-thiadiazol-2-yl)methyl) benzamide] | 49.1 | 46.2 | 71.7 | 48.2 |  | 
CCOc1cc(/C=N/c2nnc(CNC(=O)c3ccccc3)s2)ccc1O [Compound 7f, (E)-N-((5-(3-Ethoxy-4-hydroxybenzylideneamino)-1,3,4-thiadiazol-2-yl)methyl) benzamide] | 30 | 38.4 | 49.2 | 37.5 |  | 
O=C(NCc1nnc(/N=C/c2ccc(Cl)cc2Cl)s1)c1ccccc1 [Compound 7b, (E)-N-((5-(2,4-Dichlorobenzylideneamino)-1,3,4-thiadiazol-2-yl)methyl) benzamide] | 22.9 | 28.7 | 39 | 28.2 | 86.1 | three
O=C(NCc1nnc(/N=C/c2ccc(Cl)cc2)s1)c1ccccc1 [Compound 7a, (E)-N-((5-(4-Chlorobenzylideneamino)-1,3,4-thiadiazol-2-yl)methyl) benzamide] | 21.9 | 22.9 | 32.8 | 21.7 | > 100 | 
COc1cc(/C=N/c2nnc(CNC(=O)c3ccccc3)s2)cc(OC)c1OC [Compound 7i, (E)-N-((5-(3,4,5-Trimethoxybenzylideneamino)-1,3,4-thiadiazol-2-yl)methyl) benzamide] | 52.6 | 49 | 78 | 45.8 |  | 
O=C(NCc1nnc(/N=C/c2ccco2)s1)c1ccccc1 [Compound 7k, (E)-N-((5-(Furan-2-ylmethyleneamino)-1,3,4-thiadiazol-2-yl)methyl) benzamide] | 19.6 | 11.7 | 23.8 | 35.5 | > 100 | 
COc1cc(OC)c(OC)cc1/C=N/c1nnc(CNC(=O)c2ccccc2)s1 [Compound 7j, (E)-N-((5-(2,4,5-Trimethoxybenzylideneamino)-1,3,4-thiadiazol-2-yl)methyl) benzamide] | 55.7 | 51.4 | 78.8 | 49.9 |  | 
